Data taken from patent publication US20240300945A1, “CLY SERIES COMPOUND, PREPARATION METHOD THEREFOR AND USE THEREOF IN PREPARATION OF DRUGS” (NANJING WELLBEST PHARMACEUTICAL CO., LTD, priority 2021, published 2024).
Marks after values point to notes of the source that are not given here.

Columns and labels:
rat hair loss model = assay: Rat hair loss (androgenic alopecia) model: hair length; type: in vivo, Wistar rats; settings: for 15-day hair length / 30-day hair length / 45-day hair length / 60-day hair length: rat AGA model; for adverse reactions: rat hair loss model, external use and system application, 60 days
Source text: (1) Compound CLY-1, CLY-2, CLY-3, CLY-4, CLY-5, CLY-8, CLY-11, CLY-19, CLY-36, CLY-39 tincture preparation method: 75% ethanol was mixed with appropriate amount of above compounds to prepare a tincture of different concentrations.
(2) Positive treatment drug: 5% minoxidil tincture (trade name: Mandi, Zhejiang Wanma Pharmaceutical Co., Ltd.).
Wistar rats were, according to weights, randomly divided into the negative control group (75% ethanol for external use), model group (75% ethanol for external use), positive control group (external 5% minoxidil tincture), CLY-1 external treatment group (external 5% CLY-1 tincture), CLY-2 external treatment group (external 5% CLY-2 tincture), CLY-3 external treatment group (external 5% CLY-3 tincture), CLY-4 external treatment group (external 5% CLY-4 tincture), and CLY-5 external treatment group (external 5% CLY-5 tincture) according to their body weight CLY-8 external treatment group (external 5% CLY-8 tincture), CLY-11 external treatment group (external 5% CLY-11 tincture), CLY-19 external treatment group (external 5% CLY-19 tincture), CLY-36 external treatment group (external 5% CLY-36 tincture), CLY-39 external treatment group (external 5% CLY-39 tincture), CLY-1 intravenous injection group (2 mg/kg·d), CLY-3 intravenous injection group (2 mg/kg·d), CLY-4 intravenous injection group (2 mg/kg·d) CLY-5 intravenous injection group (2 mg/kg·d), CLY-8 intravenous injection group (2 mg/kg·d), CLY-11 intravenous injection group (2 mg/kg·d), CLY-19 intravenous injection group (2 mg/kg·d), CLY-36 intravenous injection group (2 mg/kg·d), and CLY-39 intravenous injection group (2 mg/kg·d), with 10 rats in each group. Before the experiment, an area of 4 cm×5 cm was selected on each rat on the back of the neck to remove hair as the observation area. In addition to the negative control group, rats were subcutaneously injected with testosterone propionate injection [5 ml/(kg·d)] once a day for 60 days to establish the androgenic alopecia (AGA) model. […] At the same time, the drug was applied to the observation area on the back of the rats in the corresponding drug group at the rate of 2 mL/(one time), twice a day, at an interval of 8 hours; Intravenous administration once a day. The negative control group and the model control group were smeared with 75% ethanol solution, 2 mL/(one rat per time), twice a day, for 60 days.
Took 10 hairs from the observation area on the back of each rat every 15 days after administration, and measured the hair length with a vernier caliper. After 60 days of administration, the skin of the experimental observation area was taken for routine tissue dehydration, paraffin embedding, HE staining, and light microscopy to observe the histopathological changes of the rat skin hair follicles and sebaceous glands. Semi-quantitative analysis was performed for each group. The grading criteria are as follows: the normal structure of dermal tissue cells, subcutaneous hair follicles, and sebaceous glands is marked as […]: no hyperplasia of dermal tissue is found, the lesions of hair follicles and sebaceous glands are limited, and no inflammation is found under the skin is marked as “+”: no obvious hyperplasia of dermal tissue is found, and the follicles are obviously cystic. No obvious hyperplasia of sebaceous glands is found, and no inflammation is found under the skin is marked as “+”: the dermal tissue has segmental hyperplasia, which is not obvious, A small number of hair follicles have cystic changes, and the sebaceous glands have mild hyperplasia and hypertrophy. There is no obvious inflammation under the skin, which is marked as “++”: the dermal tissue cells of the skin have different degrees of segmental hyperplasia, and some hair follicles have cystic changes, showing uneven size of hair follicles, and no cells around. The sebaceous glands have hyperplasia, and the nuclei in the proliferative glands are few. […]

rabbit ear acne model = assay: Rabbit ear acne model: epidermal thickness, hair follicle area, sebaceous gland diameter; type: in vivo, New Zealand rabbits; settings: rabbit right ear
Source text: New Zealand rabbits were, according to weights, randomly divided into the model control group (applied cream matrix), positive treatment group (applied Differin on the skin), CLY-1 external treatment group (0.25% CLY-1 cream on the skin), CLY-2 external treatment group (0.25% CLY-2 cream on the skin), CLY-3 external treatment group (0.25% CLY-3 cream on the skin), CLY-4 external treatment group (0.25% CLY-4 cream on the skin) CLY-8 external treatment group (0.25% CLY-8 cream on the skin), CLY-9 external treatment group (0.25% CLY-9 cream on the skin), CLY-11 external treatment group (0.25% CLY-11 cream on the skin), CLY-19 external treatment group (0.25% CLY-19 cream on the skin), CLY-36 external treatment group (0.25% CLY-36 cream on the skin); CLY-1 intravenous injection group (1 mg/kg·d), CLY-2 intravenous injection group (1 mg/kg·d), CLY-3 intravenous injection group (1 mg/kg·d), CLY-4 intravenous injection group (1 mg/kg·d), CLY-8 intravenous injection group (1 mg/kg·d), CLY-9 intravenous injection group (1 mg/kg·d), CLY-11 intravenous injection group (1 mg/kg·d), CLY-19 intravenous injection group (1 mg/kg·d), and CLY-36 intravenous injection group (1 mg/kg·d), with 10 in each group. Took the inner side of the rabbit's right ear for depilation treatment as the observation area, and the inner side of the left ear of all rabbits as their own negative control, and applied 95% alcohol. The inner side of the right ear of the model group and the treatment group were both coated with 2% coal tar (Alfa Aesar China, which used 95% alcohol to prepare 2% coal tar solution), and evenly applied the sterile cotton swab to the opening of the ear duct on the inner side of the rabbit's ear within the range of about 2 cm×2 cm, once a day, 0.5 mL each time, and wiped the previous application site with warm water for 14 consecutive days to establish the acne micro-pigmentation model. Visually observed the changes of local skin, including ear thickness, hardness, roughness, and whether there was a black angle plug at the hair follicle mouth. 18 hours after the last application, the sample was sacrificed and skin was taken. The skin tissue was taken from the application site by using a 5 mm punch, fixed with 10% formaldehyde, embedded in paraffin, and stained with HE. The histopathological observation and analysis were carried out.
The histopathological changes were observed under the microscope, and the thickness of five different epidermises on a slice was measured with the Biomias99 image analysis system, and the average value was calculated; Detected the area of the two hair follicles and the diameter of the four sebaceous glands with the same position and the most complete structure in the four sections, calculated their average values, and then subtracted the data of the left and right external auditory canal of the rabbits in each group to obtain the difference in the thickness of the left and right ear epidermis, the difference in the area of the hair follicles and the difference in the diameter of the sebaceous glands.
SPSS16 software was used for statistical analysis. The paired t-test was used for the left and right self-contrast, and the t-test was used for the comparison between the groups, P<0.05 was statistically significant.

[1] = external 5% tincture twice a day
[2] = intravenous injection 2 mg/kg·d
[3] = external use (0.25% CLY cream; positive: Differin)
[4] = intravenous injection 1 mg/kg·d

| SMILES | 15-day hair length (rat hair loss model; [1]) | 30-day hair length (rat hair loss model; [1]) | 45-day hair length (rat hair loss model; [1]) | 60-day hair length (rat hair loss model; [1]) | 15-day hair length (rat hair loss model; [2]) | 30-day hair length (rat hair loss model; [2]) | 45-day hair length (rat hair loss model; [2]) | 60-day hair length (rat hair loss model; [2]) | adverse reactions (rat hair loss model) | epidermal thickness (rabbit ear acne model; [3]) [mm] | hair follicle area (rabbit ear acne model; [3]) | sebaceous gland diameter (rabbit ear acne model; [3]) [mm] | epidermal thickness (rabbit ear acne model; [4]) [mm] | hair follicle area (rabbit ear acne model; [4]) | sebaceous gland diameter (rabbit ear acne model; [4]) [mm] |
| --- | --- | --- | --- | --- | --- | --- | --- | --- | --- | --- | --- | --- | --- | --- | --- |
| CN1CCC[C@@H](N(C(=O)c2ccc(-n3nnc4cccnc43)cc2)c2ncccc2Cl)C1 [CLY-1, (R)-4-(3H-[1,2,3]triazolo[4,5-b]pyridin-3-yl)-N-(3-chloropyridin-2-yl)-N-(1-methylpiperidin-3-yl)benzamide] | 8.3* mm | 9.3* mm | 14.2* mm | 17.6* mm | 8.7* mm | 9.6* mm | 14.6* mm | 17.9* mm | no obvious adverse reactions | 0.2376 ± 0.0182 | 0.2736 ± 0.0967* mm^2 | 0.0825 ± 0.0389 | 0.2287 ± 0.0171 | 0.2256 ± 0.0863* mm^2 | 0.0536 ± 0.0312 |
| CCN1CCC[C@@H](N(C(=O)c2ccc(-n3nnc4cccnc43)cc2)c2ncccc2Cl)C1 [CLY-2, (R)-4-(3H-[1,2,3]triazolo[4,5-b]pyridin-3-yl)-N-(3-chloropyridin-2-yl)-N-(1-ethylpiperidin-3-yl)benzamide] | 9.1* mm | 10.1* mm | 15.3* mm | 18.9* mm | 9.2* mm | 10.3* mm | 15.6* mm | 19.1* mm | no obvious adverse reactions | 0.2348 ± 0.0169 | 0.2639 ± 0.0934* mm^2 | 0.0687 ± 0.0375 | 0.2265 ± 0.0165 | 0.2232 ± 0.0859* mm^2 | 0.0496 ± 0.0298 |
| CNC1CCCC(N(C(=O)c2ccc(-n3nnc4cccnc43)cc2)c2ncccc2Cl)C1 (stereo not shown) [CLY-3] | 7.5* mm | 8.6* mm | 12.45* mm | 16.3* mm | 7.3* mm | 8.9* mm | 13.9* mm | 16.8* mm | no obvious adverse reactions | 0.2385 ± 0.0198 | 0.2923 ± 0.0987* mm^2 | 0.0837 ± 0.0412 | 0.2316 ± 0.0196 | 0.2287 ± 0.0883* mm^2 | 0.0575 ± 0.0354 |
| O=C(c1ccc(-n2nnc3cccnc32)cc1)N(c1ncccc1Cl)C1CCCC(O)C1 (stereo not shown) [CLY-4] | 7.2* mm | 8.3* mm | 12.26* mm | 16.1* mm | 7.1* mm | 8.6* mm | 13.5* mm | 16.3* mm | no obvious adverse reactions | 0.2436 ± 0.0215 | 0.3254 ± 0.1126* mm^2 | 0.0958 ± 0.0456 | 0.2363 ± 0.0235 | 0.2465 ± 0.0923* mm^2 | 0.0625 ± 0.0386 |
| COC1CCCC(N(C(=O)c2ccc(-n3nnc4cccnc43)cc2)c2ncccc2Cl)C1 (stereo not shown) [CLY-5] | 9.2* mm | 10.2* mm | 15.5* mm | 18.9* mm | 7.8* mm | 9.3* mm | 13.7* mm | 16.4* mm | no obvious adverse reactions | – | – | – | – | – | – |
| O=C(c1ccc(-n2nnc3cccnc32)cc1)N(c1ncccc1Cl)[C@@H]1CCNC1 [CLY-8, (R)-4-(3H-[1,2,3]triazolo[4,5-b]pyridin-3-yl)-N-(3-chloropyridin-2-yl)-N-(pyrrolidin-3-yl)benzamide] | 9.3* mm | 10.3* mm | 15.7* mm | 19.2* mm | 7.3* mm | 9.5* mm | 13.8* mm | 17.8* mm | no obvious adverse reactions | 0.2237 ± 0.0168 | 0.2115 ± 0.0832* mm^2 | 0.0663 ± 0.0307 | 0.1843 ± 0.0156 | 0.1845 ± 0.0653* mm^2 | 0.0572 ± 0.0289 |
| NC1CCCC(N(C(=O)c2ccc(-n3nnc4cccnc43)cc2)c2ncccc2Cl)C1 (stereo not shown) [CLY-11] | 8.2* mm | 9.1* mm | 13.89* mm | 17.4* mm | 8.6* mm | 9.3* mm | 14.7* mm | 17.6* mm | no obvious adverse reactions | 0.2372 ± 0.0176 | 0.2745 ± 0.0946* mm^2 | 0.0786 ± 0.0392 | 0.2295 ± 0.0173 | 0.2246 ± 0.0856* mm^2 | 0.0552 ± 0.0325 |
| Nc1cc(N2CCCCC2)nc(N)[n+]1[O-] [Positive control group, minoxidil, reference compound] | 7.6* mm | 8.5* mm | 13.1* mm | 16.2* mm | – | – | – | – | – | – | – | – | – | – | – |
